In patent US20070293486A1, “Alpha-Keto Carbonyl Calpain Inhibitors” (SANTHERA PHARMACEUTICALS (SCHWEIZ) AG, priority 2004, published 2007):

Legend:
human μ-calpain = biological target: T1, human μ-calpain (Homo sapiens, UniProt P07384); assay: Enzymatic Calpain Inhibition Assay; type: biochemical; conditions: enzymatic calpain I inhibition; read-out: Calp I IC50
T1 construct: purchased Calbiochem
T1 sequence (P07384 1-714): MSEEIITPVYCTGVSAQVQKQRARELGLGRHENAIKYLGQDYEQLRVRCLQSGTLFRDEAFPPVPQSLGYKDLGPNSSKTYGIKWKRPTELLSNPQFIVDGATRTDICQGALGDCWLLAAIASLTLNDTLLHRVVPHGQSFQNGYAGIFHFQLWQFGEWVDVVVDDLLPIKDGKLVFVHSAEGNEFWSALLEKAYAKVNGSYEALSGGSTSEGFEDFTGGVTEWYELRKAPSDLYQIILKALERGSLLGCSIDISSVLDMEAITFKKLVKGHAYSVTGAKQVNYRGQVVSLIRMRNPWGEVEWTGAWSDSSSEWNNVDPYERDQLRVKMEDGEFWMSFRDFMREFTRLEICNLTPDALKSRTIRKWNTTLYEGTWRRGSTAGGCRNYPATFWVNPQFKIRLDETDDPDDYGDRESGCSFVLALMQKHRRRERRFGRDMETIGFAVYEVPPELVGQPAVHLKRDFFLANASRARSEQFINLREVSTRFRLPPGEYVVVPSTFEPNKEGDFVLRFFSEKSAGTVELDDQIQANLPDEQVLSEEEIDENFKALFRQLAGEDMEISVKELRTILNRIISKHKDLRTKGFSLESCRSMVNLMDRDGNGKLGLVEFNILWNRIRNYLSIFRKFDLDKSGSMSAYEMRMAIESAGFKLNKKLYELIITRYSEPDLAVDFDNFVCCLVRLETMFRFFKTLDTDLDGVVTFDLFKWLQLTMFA
T1 sequence (P04632 1-268 partner): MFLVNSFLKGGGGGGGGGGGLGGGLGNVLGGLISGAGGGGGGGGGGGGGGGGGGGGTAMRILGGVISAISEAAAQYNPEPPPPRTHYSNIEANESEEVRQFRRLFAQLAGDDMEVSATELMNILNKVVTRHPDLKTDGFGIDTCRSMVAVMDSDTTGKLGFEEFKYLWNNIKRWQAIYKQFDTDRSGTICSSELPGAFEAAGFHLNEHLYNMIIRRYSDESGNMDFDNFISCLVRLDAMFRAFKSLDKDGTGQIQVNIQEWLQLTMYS
Experimental: The Ki value was also determined in some cases. These criteria were used to measure the inhibitory effect of the compounds (I) on calpain I, calpain II and cathepsin B.
The inhibitory properties of calpain inhibitors are tested in 100 μl of a buffer containing 100 mM imidazole pH 7.5, 5 mM L-Cystein-HCl, 5 mM CaCl2, 250 μM of the calpain fluorogenic substrate Suc-Leu-Tyr-AMC (Sigma) (Sasaki et al., J. Biol. Chem., 1984, 259, 12489-12949) dissolved in 2.5 μl DMSO and 0.5 μg of human μ-calpain (Calbiochem). The inhibitors dissolved in 1 μl DMSO are added to the reaction buffer. The fluorescence of the cleavage product 7-amino-4-methylcoumarin (AMC) is followed in a SPECTRAmax GEMINI XS (Molecular Device) fluorimeter at λex=360 nm and λem=440 nm at 30° C. during 30 min at intervals of 30 sec in 96-well plates (Greiner). The initial reaction velocity at different inhibitor concentrations is plotted against the inhibitor concentration and the IC50 values determined graphically.

20S Proteasome = biological target: T2, 20S Proteasome (Oryctolagus cuniculus, UniProt G1T4Q9); assay: 20S Proteasome Assay; type: biochemical; conditions: Rabbit, read-out: 20S Prot IC50
T2 sequence (G1T4Q9 1-263): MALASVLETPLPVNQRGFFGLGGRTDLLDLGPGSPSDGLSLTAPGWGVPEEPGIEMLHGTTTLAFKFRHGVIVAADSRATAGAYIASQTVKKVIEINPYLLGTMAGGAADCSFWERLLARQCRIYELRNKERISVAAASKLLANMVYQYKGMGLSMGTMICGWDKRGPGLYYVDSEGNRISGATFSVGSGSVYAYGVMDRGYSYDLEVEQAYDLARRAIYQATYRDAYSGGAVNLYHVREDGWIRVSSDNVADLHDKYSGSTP
Experimental: 25 μl of a reaction buffer containing 400 μM of the fluorogenic substrate Suc-Leu-Leu-Val-Tyr-AMC (Bachem) are dispensed per well of a white microtiter plate. Test compounds dissolved in 0.5 μl DMSO are added. To start the reaction; 25 μl of reaction buffer containing 35 ng of enzyme (20S Proteasome, Rabbit, Calbiochem) are added. The increase in fluorescence (excitation at 360 nm; emission at 440 nm) is measured over 30 min at 30° C. at 30″. The IC50's are then determined from the slopes.

Work on `CCNC(=O)C(=O)[C@H](Cc1ccc(Cl)cc1)NC(=O)[C@@H](NC(=O)[C@H](Cc1ccccc1)NC(=O)CCCCC1CCS[S+]1[O-])C(C)C` (stereo partly shown) [Example 2] yielded an IC50 (human μ-calpain) of 38 nM and an IC50 (20S Proteasome) of 160 nM.

Molecule `CCNC(=O)C(=O)C(Cc1ccc(OC)cc1)NC(=O)C(CC(C)C)NC(=O)C(Cc1cccc2ccccc12)NC(=O)CCCCC1CCSS1` (stereo not shown) [Example 637] has an IC50 (human μ-calpain) of 30 nM and an IC50 (20S Proteasome) of 40 nM.
